Reference: patent US7485742B2, “Non-glycosidic and non-peptidic inhibitors of selectin, and the use thereof” (Johannes Gutenberg-Universität Mainz, priority 2004, dated 2009)

Columns and labels:
[1] = system: MM6-cells; test: XTT-viability test; type: cell-based; conditions: after 1.5 hours, FIG. 3
Protocol: The XTT-assay (Cell Proliferation Kit II (XTT), Roche molekulare Biochemikalien, Mannheim, Germany) was used for the quantification of the anti-proliferative or cytotoxic effects of the substances as synthesized. The assay is based on the conversion of the yellow tetrazolium-salt XTT into an orange formazan-dye by metabolically active cells. The XTT-formazan-dye is soluble in aqueous solutions, and can be directly determined in a quantitative fashion with an ELISA-reader. The incubation time varies depending from the respective experimental setting (e.g. the kind of cell and the cellular concentrations used). Following the addition of the final XTT-reagent, the absorption was determined at 490 nm, at different points in time (e.g. 30 minutes, 4, 6, 8, 12, and 18 hours). All data were analyzed with Microsoft Excel. The IC50 values were calculated with the program GRAFIT, Erithacus Software Ltd., Great Britain.
Using the commercial available XTT-test kit, the cytotoxic behavior of substances with different structural elements against MM6-cells was examined after 1.5 hours. Structural elements that are responsible for the cytotoxicity were identified. The amide-function in combination with free carboxylic acid-functions was identified as particularly cytotoxic.

[2] = system: adhesion of PMN leukocytes to BAEC monolayer stimulated with TNF-α (selectin-mediated); test: Static adhesion assay (leukocyte adhesion to endothelial monolayer); type: cell-based, bovine; conditions: for potency in the static adhesion assay, bimosiamose compared with T3: bimosiamose at 600 μM versus T3 at 100 μM
Protocol: The reduction of adhesion of adhering leukocytes to the monolayer stimulated with TNF-α was set to 0%, the one in the untreated control-wells was set to 100%.
Following seeding in 24 well-plates, the examination of the adhesion was performed using (bovine aorta endothelial cells) BAEC monolayers of the cell passage 1-3 seven days. Before performing the assay, the completeness and the uniformity of the BAEC-monolayer was microscopically ensured. The culture medium (500 ml of medium M199, to which 6 ml of penicillin/streptomycin solution 1%, 6 ml L-glutamine (200 mM) and 100 ml (20%) of fetal calf serum, Sigma, Munich, were added) was removed, and the monolayer was washed twofold with DPBS (1000 μl/well, 37° C.). Subsequent to washing, the cells were treated with the cell culture medium containing 20 ng/ml of recombinant tumor necrosis-factor-alpha (TNFα) (in the presence of the respective test substance, dissolved in dimethylsulfoxide (DMSO) or only with DMSO as vehicle) […] at 37° C. and 5% CO2 for 4 hours. After another twofold washing with DPBS (1000 μl/well, 37° C.) 900 μl of the culture medium and 100 μl of a PMN-suspension (10^6 cells per ml) were added per well, and incubated for 30 minutes at 37° C. and 5% CO2. Non-adherent cells were removed by twofold washing with DPBS (1000 μl/well, 37° C.). […]
The BAEC-sections were analyzed with an inverse Leica DM IRS-microscope (Leica, Bensheim, Germany) at 100-fold magnification. […] For the manual counting of PMNs, several randomly selected sections of 0.25 mm^2 in size from the centre of the respective well of the well-plate were counted. […] In order to do so, each PMN in the area as chosen was counted by a PC-mouse click, and the counted cells were labeled. […]
The analysis of the pictures was performed using the publicly available ImageJ-software (available at http://rsb.info.nih.gov/ij), installed on a standard-PC (Maxdata, Mergel, Germany). All pictures as obtained in a test run were grouped into an series, and then analyzed in an automated method using a specifically programmed macro. […]

[3] = system: selectins; conditions: cited from earlier work

SMILES	cytotoxic behavior (XTT) [1]	effect on the reduction of the adhesion (potency) ([2]; static assay, FIG. 1, leukocytes on TNF-α-stimulated BAEC monolayer, 10^-4-10^-7 mol/l tested)	potency in the static adhesion assay, bimosiamose compared with T3 [2]	affinity to the selectins compared to sLeX [3]
CCCCCCCCCCOc1cc(OCCCCCCCCCC)cc(OCCCCCCN(c2ccc(C(=O)O)cc2)c2ccc(C(=O)O)cc2)c1 [T21, 4-(N-(6-(3,5-bis(decyloxy)phenoxy)hexyl)-N-(4-carboxyl-phenyl)amino)benzoic acid]	completely non-toxic	highly potent	–	–
CS(=O)(=O)c1ccc(C2=C(c3ccccc3)C(=O)OC2)cc1 [Rofecoxib]	has cytotoxic effects	–	–	–
CCCCCCCCCCOc1cc(OCCCCCCCCCC)cc(OCCCCCC(=O)N(c2ccc(C(=O)O)cc2)c2ccc(C(=O)O)cc2)c1 [T3, 6-(3,5-Didecyloxyphenoxy)-hexanoic acid-N,N-bis(4-carboxyphenyl)amide]	–	–	about the same potency	–
O=C(O)Cc1cccc(-c2cc(CCCCCCc3ccc(O[C@H]4O[C@H](CO)[C@@H](O)[C@H](O)[C@@H]4O)c(-c4cccc(CC(=O)O)c4)c3)ccc2O[C@H]2O[C@H](CO)[C@@H](O)[C@H](O)[C@@H]2O)c1 [bimosiamose, 1,6-bis[3-(3-carboxymethylphenyl)-4-(2-alpha-D-mannopyranosyloxy)phenyl]hexane]	–	–	about the same potency	essentially higher affinity
